Measured values from PMC10740956, “A Multitarget Approach against Neuroinflammation: Alkyl Substituted Coumarins as Inhibitors of Enzymes Involved in Neurodegeneration” (Antioxidants, 2023).
Values joined by “and” are separate entries in the source; they are usually repeats but may differ in a detail not shown here. Identical values can stand only once. “Also recorded” adds a separate entry of the source. Like-named read-outs stand apart in the source and are kept apart here.

Columns and labels:
[1] = biological target: T1, hMAO-B (Homo sapiens, UniProt P27338); test: hMAO-B inhibition, recombinant enzyme, kynuramine substrate, fluorescence; format: biochemical; conditions: for SI (selectivity index for hMAO-B over hMAO-A): IC50 hMAO-A/IC50 hMAO-B; for IC50: mean ± SD of triplicate determinations
T1 construct: purchased Sigma-Aldrich
T1 sequence (P27338 1-520): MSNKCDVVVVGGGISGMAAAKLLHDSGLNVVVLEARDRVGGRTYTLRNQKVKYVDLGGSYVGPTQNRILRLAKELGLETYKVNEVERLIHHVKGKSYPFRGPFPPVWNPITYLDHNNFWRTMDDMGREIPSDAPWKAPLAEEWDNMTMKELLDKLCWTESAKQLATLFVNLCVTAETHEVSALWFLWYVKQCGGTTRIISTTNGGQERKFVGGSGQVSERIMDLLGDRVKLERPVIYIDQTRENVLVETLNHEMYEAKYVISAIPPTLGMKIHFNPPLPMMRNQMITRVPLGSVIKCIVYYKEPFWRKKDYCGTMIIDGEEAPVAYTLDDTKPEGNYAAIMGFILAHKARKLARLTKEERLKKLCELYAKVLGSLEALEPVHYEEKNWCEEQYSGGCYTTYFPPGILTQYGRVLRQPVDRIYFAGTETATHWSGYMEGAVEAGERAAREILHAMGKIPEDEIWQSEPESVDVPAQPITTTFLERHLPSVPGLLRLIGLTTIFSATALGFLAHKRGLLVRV

[2] = biological target: T2, BuChE (equine serum) (Equus caballus, UniProt P81908); test: biochemical; format: biochemical; conditions: for IC50: mean ± SD of triplicate determinations
T2 construct: from tissue; host or cells: equine serum

[3] = biological target: T3, AChE (electric eel) (Electrophorus electricus, UniProt O42275); test: biochemical; conditions: for IC50: mean ± SD of triplicate determinations; for inhibition at 100 µM: read-out: inhibition of AChE at 100 µM, 100 µM
T3 construct: from tissue

[4] = test system: CTX/TNA2 rat astrocytes; test: Cell metabolic activity assay (MTT), non-inflammatory conditions; format: cell-based; conditions: 0-150 µM, 24-72 h
[5] = test system: CTX/TNA2 rat astrocytes pre-stimulated with LPS; test: Cell metabolic activity assay (MTT), LPS pre-stimulated astrocytes; format: cell-based; conditions: pre-stimulated with 0.1 µg/mL LPS 20 h, then compounds 24 and 72 h
[6] = biological target: hCA VII (Homo sapiens, UniProt P43166); test: stopped flow CO2 hydrase assay, hCA VII; format: biochemical; conditions: mean of 3 different assays
[7] = biological target: hCA II (Homo sapiens, UniProt P00918); test: stopped flow CO2 hydrase assay, hCA II; format: biochemical; conditions: mean of 3 different assays
[8] = biological target: hCA XII (Homo sapiens, UniProt O43570); test: stopped flow CO2 hydrase assay, hCA XII; format: biochemical
[9] = biological target: hCA IX (Homo sapiens, UniProt Q16790); test: stopped flow CO2 hydrase assay, hCA IX; format: biochemical; conditions: mean of 3 different assays
[10] = biological target: hCA I (Homo sapiens, UniProt P00915); test: stopped flow CO2 hydrase assay, hCA I; format: biochemical; conditions: mean of 3 different assays
[11] = biological target: T4, hMAO-A (Homo sapiens, UniProt P21397); test: hMAO-A inhibition, recombinant enzyme, kynuramine substrate, fluorescence; format: biochemical; conditions: for IC50: mean ± SD of triplicate determinations
T4 construct: purchased Sigma-Aldrich
T4 sequence (P21397 1-527): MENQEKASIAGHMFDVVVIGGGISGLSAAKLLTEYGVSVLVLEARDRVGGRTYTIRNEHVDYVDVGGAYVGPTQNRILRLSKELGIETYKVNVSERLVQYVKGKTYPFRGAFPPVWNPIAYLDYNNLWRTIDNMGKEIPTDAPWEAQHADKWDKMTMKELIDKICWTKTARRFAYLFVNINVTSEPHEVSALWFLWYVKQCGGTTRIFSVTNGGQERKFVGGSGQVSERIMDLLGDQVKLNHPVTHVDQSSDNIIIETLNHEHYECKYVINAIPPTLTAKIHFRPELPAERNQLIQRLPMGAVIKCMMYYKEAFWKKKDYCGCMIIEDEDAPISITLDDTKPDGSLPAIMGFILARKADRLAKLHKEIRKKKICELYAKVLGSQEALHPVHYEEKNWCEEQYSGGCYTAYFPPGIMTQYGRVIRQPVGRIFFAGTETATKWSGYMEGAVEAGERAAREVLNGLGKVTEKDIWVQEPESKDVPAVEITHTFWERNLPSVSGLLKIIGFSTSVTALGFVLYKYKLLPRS

[12] = test system: Interleukin-6 secretion from rat astrocytes pre-stimulated with LPS; test: IL-6 secretion by ELISA in LPS pre-stimulated astrocytes; format: cell-based; conditions: 24 h, compared to LPS alone
Experimental: (§1) Cells were seeded (8 × 10^3/well) and were left to adhere for 24 h in 96-well plates (Falcon®, Corning Incorporated, NY, USA). The medium was removed, incubating the cell monolayer in the presence of increasing concentrations of DEP, AAZ, and test compounds (0–150 µM) for 24–72 h. In a second set of experiments, cells were pre-incubated in the presence of 0.1 µg/mL LPS (lipopolysaccharide from E. coli, purchased from Merck, Darmstadt, Germany) for 20 h and further exposed to DEP, AAZ, and test compounds in the same experimental conditions.
The amounts (pg/mL) of interleukin-6 (IL-6) were analyzed in cell supernatants using an ELISA kit (Enzo Life Sciences Inc., Lausen, Switzerland) following the manufacturer’s instructions. Absorbance was read at 450 nm and cytokine concentration was determined. Data obtained were normalized on MTT optical densities.

[13] = test system: H2O2 generation in rat astrocytes pre-stimulated with LPS; test: Hydrogen peroxide measurement in supernatants of LPS pre-stimulated astrocytes; format: cell-based; conditions: 24 h
Experimental: as §1
At 24 h, cell supernatants were taken from the cultures used for the MTT assay. The quantitative determination of H2O2 released in supernatants was performed by means of a H2O2 colorimetric kit (cat. no. ADI-907-015, Enzo Life Sciences, Inc., Farmingdale, NY, USA). Then, 50 µL of supernatant/well was used and 100 µL of color reagent was added in each well. Next, wells were mixed and afterwards incubated for 30 min at r.t. The OD was measured following the manufacturer’s instructions.

T3 sequence (O42275 24-633): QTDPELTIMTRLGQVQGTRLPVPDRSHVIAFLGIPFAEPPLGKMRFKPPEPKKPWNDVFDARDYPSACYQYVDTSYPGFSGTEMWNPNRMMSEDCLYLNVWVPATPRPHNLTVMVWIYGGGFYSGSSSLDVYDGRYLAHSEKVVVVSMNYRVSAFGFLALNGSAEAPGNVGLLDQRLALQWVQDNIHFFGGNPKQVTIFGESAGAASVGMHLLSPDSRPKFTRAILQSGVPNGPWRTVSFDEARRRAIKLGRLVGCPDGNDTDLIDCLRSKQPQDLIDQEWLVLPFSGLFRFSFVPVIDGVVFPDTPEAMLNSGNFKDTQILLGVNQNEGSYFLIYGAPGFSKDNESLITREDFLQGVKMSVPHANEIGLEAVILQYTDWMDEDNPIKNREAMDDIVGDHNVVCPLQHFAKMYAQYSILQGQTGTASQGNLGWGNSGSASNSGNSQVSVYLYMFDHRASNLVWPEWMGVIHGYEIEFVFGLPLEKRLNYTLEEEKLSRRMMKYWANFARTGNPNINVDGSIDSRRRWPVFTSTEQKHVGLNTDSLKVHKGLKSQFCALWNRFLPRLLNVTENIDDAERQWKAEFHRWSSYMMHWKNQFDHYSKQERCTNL
hCA XII, sequence (O43570 25-354): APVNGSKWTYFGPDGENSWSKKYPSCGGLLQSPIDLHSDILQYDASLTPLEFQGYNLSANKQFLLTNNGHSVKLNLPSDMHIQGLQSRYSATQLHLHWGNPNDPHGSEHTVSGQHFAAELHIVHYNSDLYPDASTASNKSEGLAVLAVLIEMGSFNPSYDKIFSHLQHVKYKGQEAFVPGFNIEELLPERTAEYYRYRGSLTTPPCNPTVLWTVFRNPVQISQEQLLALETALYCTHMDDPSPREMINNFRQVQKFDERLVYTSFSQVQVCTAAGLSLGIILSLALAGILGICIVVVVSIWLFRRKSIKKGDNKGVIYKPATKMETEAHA
hCA I, sequence (P00915 whole entry): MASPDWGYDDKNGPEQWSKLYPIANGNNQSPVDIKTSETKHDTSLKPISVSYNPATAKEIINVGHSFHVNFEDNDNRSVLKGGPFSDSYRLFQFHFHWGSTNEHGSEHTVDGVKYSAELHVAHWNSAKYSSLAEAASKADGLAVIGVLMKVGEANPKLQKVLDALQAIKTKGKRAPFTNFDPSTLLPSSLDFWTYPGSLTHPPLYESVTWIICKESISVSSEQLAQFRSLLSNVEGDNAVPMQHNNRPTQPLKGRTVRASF
hCA VII, sequence (P43166 whole entry): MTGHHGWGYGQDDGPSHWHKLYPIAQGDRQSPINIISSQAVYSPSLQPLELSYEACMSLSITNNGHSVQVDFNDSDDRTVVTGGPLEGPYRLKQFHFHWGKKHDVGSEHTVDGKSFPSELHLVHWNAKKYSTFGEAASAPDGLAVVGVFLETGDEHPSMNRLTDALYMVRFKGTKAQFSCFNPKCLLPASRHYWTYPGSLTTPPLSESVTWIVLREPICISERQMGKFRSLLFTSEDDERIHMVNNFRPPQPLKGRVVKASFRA
T2 sequence (P81908 whole entry): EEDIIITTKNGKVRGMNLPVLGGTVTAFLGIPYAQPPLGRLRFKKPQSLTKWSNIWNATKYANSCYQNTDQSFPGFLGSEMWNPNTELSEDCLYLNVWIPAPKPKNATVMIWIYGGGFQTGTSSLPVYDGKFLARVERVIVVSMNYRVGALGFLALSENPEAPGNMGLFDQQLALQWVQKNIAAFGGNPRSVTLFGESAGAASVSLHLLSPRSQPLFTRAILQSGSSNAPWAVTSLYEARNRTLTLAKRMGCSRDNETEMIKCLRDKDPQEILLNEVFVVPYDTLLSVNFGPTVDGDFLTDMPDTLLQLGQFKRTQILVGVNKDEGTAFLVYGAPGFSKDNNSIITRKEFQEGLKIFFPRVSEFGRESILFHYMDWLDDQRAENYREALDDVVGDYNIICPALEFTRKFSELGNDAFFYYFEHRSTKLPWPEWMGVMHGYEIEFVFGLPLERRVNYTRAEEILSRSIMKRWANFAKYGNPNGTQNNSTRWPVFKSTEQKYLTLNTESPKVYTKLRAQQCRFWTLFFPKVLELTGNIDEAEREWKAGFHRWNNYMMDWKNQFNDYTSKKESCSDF

| SMILES | SI (selectivity index for hMAO-B over hMAO-A) [1] | IC50 [1] | IC50 [2] | IC50 [3] | cell metabolic activity (MTT), biocompatibility [4] | cell metabolic activity (MTT) versus LPS only control [5] | Ki [6] | Ki [7] | Ki ([8]; mean of 3 different assays) | Ki [9] | Ki [10] | IC50 [11] | IL-6 secretion [12] | further results |
| --- | --- | --- | --- | --- | --- | --- | --- | --- | --- | --- | --- | --- | --- | --- |
| C#CCCCCOc1cc(=O)oc2ccccc12 [Compound 2, 4-(Hex-5-yn-1-yloxy)-2H-chromen-2-one] | 0.42 | > 10 µM and 25.9 µM | 21 ± 1 µM | > 100 µM | good biocompatibility, with a cell metabolic activity significantly decreased only after 48 h and at the highest concentration tested (150 µM) | able to counteract the LPS-induced increase in cell metabolic activity | 0.0469 µM | > 10 µM | 0.0048 µM | 0.009 µM | > 10 µM | > 10 µM and 10.8 µM | – | BuChE mode of inhibition ([2]; Cornish-Bowden plots): mixed inhibition mechanism; Kib BuChE (inhibitor binding the ES complex) ([2]; Cornish-Bowden plots): 25 ± 3 µM; Ki ([2]; Cornish-Bowden plots, read-out: Kia BuChE (inhibitor binding the free enzyme) (converted)): 13 µM |
| C#CCCCOc1cc(=O)oc2ccccc12 [Compound 1, 4-(Pent-4-yn-1-yloxy)-2H-chromen-2-one] | <0.51 | > 100 µM | 33 ± 1 µM | > 100 µM | good biocompatibility, with a cell metabolic activity significantly decreased only after 48 h and at the highest concentration tested (150 µM) | – | 0.0598 µM | > 10 µM | 0.0048 µM | 0.0172 µM | 6.26 µM | > 10 µM and 51.2 µM | – | – |
| CC(=O)Nc1nnc(S(N)(=O)=O)s1 [AAZ, acetazolamide, reference compound] | – | – | – | – | – | – | – | – | – | – | – | – | the highest concentrations of AAZ are capable of decreasing IL-6 secretion in a significant manner | – |
| C#CCOc1ccc2ccc(=O)oc2c1 [Compound 5, 7-(Prop-2-ynyloxy)-2H-chromen-2-one] | – | 5.79 ± 0.26 µM | > 100 µM | > 100 µM | cell metabolic activity significantly decreases at all the concentrations tested at 48 h | – | 0.0519 µM | > 10 µM | 0.73 µM | – | > 10 µM | – | had an effect on IL-6 release | H2O2 generation ([13]; 0.01 µM): restoring it to the untreated control levels |
| C#CCCCOc1ccc2ccc(=O)oc2c1 [Compound 8, 7-(Pent-4-yn-1-yloxy)-2H-chromen-2-one] | – | 0.51 ± 0.0099 µM | > 100 µM | > 100 µM | – | able to counteract the LPS-induced increase in cell metabolic activity | 0.0693 µM | > 10 µM | 0.0065 µM | 0.0266 µM | > 10 µM | 5.7 ± 0.21 µM | – | – |
| C#CCCCCOc1ccc2ccc(=O)oc2c1 [Compound 9, 7-(Hex-5-yn-1-yloxy)-2H-chromen-2-one] | 92.8 | 0.007 ± 0.00035 µM | 51 ± 4 µM | – | – | able to counteract the LPS-induced increase in cell metabolic activity | 0.0771 µM | > 10 µM | 0.0059 µM | 0.0313 µM | > 10 µM | 0.65 ± 0.027 µM | decreases the amount of the cytokine at 0.01 and 10 µM | Ki ([1]; Lineweaver-Burk plots): 0.0023 µM; hMAO-B inhibition mechanism ([1]; Lineweaver-Burk plots): competitive inhibition mechanism; inhibition at 100 µM [3]: 50%; Ki ([11]; Lineweaver-Burk plots): 0.146 µM; hMAO-A inhibition mechanism ([11]; Lineweaver-Burk plots): competitive inhibition mechanism; H2O2 generation ([13]; 10 µM): restoring it to the untreated control levels |
| CCC#CCOc1ccc2ccc(=O)oc2c1 [Compound 7, 7-(Pent-2-yn-1-yloxy)-2H-chromen-2-one] | – | 0.008 ± 0.00062 µM | 59 ± 1 µM | – | – | – | 0.0635 µM | > 10 µM | – | 0.013 µM | > 10 µM | 11.2 ± 0.39 µM | – | inhibition at 100 µM [3]: 50%; Ki [8]: 0.0068 µM; H2O2 generation ([13]; 0.01 µM): restoring it to the untreated control levels; also recorded: strong reduction in H2O2 release |
| C#CCOc1ccc2oc(=O)ccc2c1 [Compound 3, 6-(Prop-2-ynyloxy)-2H-chromen-2-one] | – | > 10 µM and 65.4 µM | > 100 µM | > 100 µM | well tolerated up to 48 h and display a good biocompatibility at the longest exposure time (72 h) | able to counteract the LPS-induced increase in cell metabolic activity | 0.0617 µM | – | – | – | – | > 10 µM and 40.2 µM | – | – |
| CC#CCOc1ccc2ccc(=O)oc2c1 [Compound 6, 7-(But-2-yn-1-yloxy)-2H-chromen-2-one] | 85.3 | 0.25 ± 0.017 µM | > 100 µM | > 100 µM | cell metabolic activity significantly decreases at all the concentrations tested at 48 h | – | 0.0682 µM | > 10 µM | 0.0068 µM | 0.0093 µM | > 10 µM | 21.3 ± 0.77 µM | – | H2O2 generation ([13]; 150 µM): restoring it to the untreated control levels |
| C#CCN(C)C(C)Cc1ccccc1 (stereo not shown) [DEP, deprenyl, reference compound] | – | – | – | – | – | – | – | – | – | – | – | – | increases the amount of IL-6 at the highest concentration tested | – |
| CC#CCOc1ccc2oc(=O)ccc2c1 [Compound 4, 6-(But-2-yn-1-yloxy)-2H-chromen-2-one] | 4.6 | > 10 µM and 12.1 µM | > 100 µM | > 100 µM | well tolerated up to 48 h and display a good biocompatibility at the longest exposure time (72 h) | – | 0.0633 µM | > 10 µM | 0.0043 µM | 0.0242 µM | > 10 µM | > 10 µM and 55.7 µM | – | H2O2 generation ([13]; 10 µM): restoring it to the untreated control levels |
